Read-outs that look alike come from different tables or passages of the source.
Tests used:
[1] = molecular target: T1, human fatty acid amide hydrolyase (FAAH) (Homo sapiens, UniProt O00519); experiment: Fluorogenic hFAAH assay; format: biochemical
T1 construct: expressed in transfected cells
T1 sequence (O00519 1-579): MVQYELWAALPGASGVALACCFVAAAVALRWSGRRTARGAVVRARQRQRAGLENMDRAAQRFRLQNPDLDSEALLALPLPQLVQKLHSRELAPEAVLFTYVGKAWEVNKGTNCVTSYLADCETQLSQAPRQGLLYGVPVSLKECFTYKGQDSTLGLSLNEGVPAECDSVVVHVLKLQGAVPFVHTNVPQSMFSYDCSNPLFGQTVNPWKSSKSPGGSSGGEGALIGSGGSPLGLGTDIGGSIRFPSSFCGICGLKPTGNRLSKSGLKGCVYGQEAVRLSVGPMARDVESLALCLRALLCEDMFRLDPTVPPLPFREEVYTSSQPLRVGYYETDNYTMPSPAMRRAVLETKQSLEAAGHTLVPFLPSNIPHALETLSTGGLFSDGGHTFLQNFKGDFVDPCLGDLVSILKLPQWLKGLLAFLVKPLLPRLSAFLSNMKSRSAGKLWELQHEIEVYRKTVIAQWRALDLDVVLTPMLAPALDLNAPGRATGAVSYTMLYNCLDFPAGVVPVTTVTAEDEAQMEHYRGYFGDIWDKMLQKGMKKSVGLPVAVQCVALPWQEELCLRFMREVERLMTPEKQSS
Protocol: hFAAH was obtained from a HEK-293 FAAH-1 overexpressing stable cell line. Cells were grown in Dulbecco’s modified Eagle medium (DMEM) containing 10% FBS, 1% penicillin/streptomycin, 1% glutamine, 1 mM sodium pyruvate, and 500 μg mL^–1 G418. Cells were harvested, and pellets were stored at −80 °C until membrane-enriched lysate preparation. The cell pellet was resuspended in 20 mM Tris HCl (pH 7.4, 0.32 M sucrose), sonicated, and centrifuged at 1000 × g (10 min, 4 °C). The collected supernatant was centrifuged at 12000 × g for 10 min at 4 °C, and the supernatants were further centrifuged at 100000 × g for 1 h at 4 °C. Membrane pellets were resuspended in PBS, protein concentration was measured, and samples were aliquoted and stored at −80 °C until use.
The fluorescence assay to measure FAAH activity was performed in 96-well black plates (Black OptiPlate-96F; PerkinElmer, Massachusetts, USA): 2.5 μg of hFAAH membrane preparation was preincubated for 50 min at 37 °C in 190 μL of assay buffer (50 mM Tris HCl pH 7.4, 0.05% fatty acid free BSA), with 5 μL of inhibitor or 5 μL of DMSO to measure FAAH total activity. […] The reaction was carried out for 45 min at 37 °C, and fluorescence was measured with an EnVision 2014 Multilabel Reader (PerkinElmer, Massachusetts, USA) (excitation wavelength 355 nm/emission wavelength 460 nm). […]

[2] = Plasma and brain concentrations in Twitcher mice; format: in vivo; settings: both sexes, Twitcher (GALC–/−), mouse, ip, 1 h after last dose (day 20)
Protocol: 4L;C* mice (C57BL/6 J/129SvEV) were randomly assigned to three treatment groups (N = 4–8 with mixed males and females) and dosed once a day i.p. with 90 or 30 mg kg^–1 of 22m or vehicle. Treatment started at 5 days of age for a duration of 14 days. The application volume was set to 10 μL per gram of body weight, and dosage was adjusted accordingly. Animals of all groups were sacrificed 1 h after the last dose, and the brain tissues and plasma were collected. The left brain containing cortex, cerebella, thalamus, and brainstem was analyzed for SphL levels by MS. Data were analyzed using the Student t test. The right brain containing cortex, cerebella, thalamus, and brainstem and plasma were analyzed for drug levels of 22m. All mice were housed under pathogen-free conditions in the animal facility, and animal experiment was performed according to the IACUC approved protocol (2018-0056) at Cincinnati Children’s Hospital Research Foundation. Wild Type (WT) (GALC+/+) and Twitcher (Twi) (GALC–/−) mice were genotyped by PCR as previously described.[58] Twi mice were randomly assigned to three treatment groups (N = 3 males + N = 3 females for each group) and dosed once a day i.p. with 90 or 30 mg kg^–122m or vehicle for a duration of 20 days. Treatment started at 10 days of age. The application volume was set to 10 μL per gram of body weight, and dosage was adjusted accordingly. Two groups (N = 3 males + N = 3 females for each group) of WT controls treated with vehicle or high dose (90 mg kg^–1) of 22m were also included in the study. Animals of all groups were sacrificed 1 h after the last dose, and the brain tissues and plasma were collected. The left brain containing cortex, cerebella, thalamus, and brainstem was analyzed for SphL levels by MS. Data were analyzed using the Student t test. The right brain containing cortex, cerebella, thalamus, and brainstem and plasma were analyzed for drug levels of 22m. All animal work in this study was performed in accordance with approved animal protocols from the Animal Care and Use Committee at the University of Illinois at Chicago.

SMILES: CC(C)CNC(=O)n1c(=O)oc2cc(C3CCN(C)CC3)ccc21 [22m, N-Isobutyl-6-(1-methyl-4-piperidyl)-2-oxo-1,3-benzoxazole-3-carboxamide]
- IC50 [1]: 70 nM
- concentration at 1 h ([2]; brain, 30 mg kg^–1, Twitcher mice, 30 mg kg^–1 i.p., read-out: Cb (μM) brain concentration): 114 µM
- concentration at 1 h ([2]; brain, 30 mg kg^–1, Twitcher mice, 30 mg kg^–1 i.p., read-out: Cb, u (μM) brain unbounded concentration): 0.8 µM
- concentration at 1 h ([2]; brain, 90 mg kg^–1, Twitcher mice, 90 mg kg^–1 i.p., read-out: Cb (μM) brain concentration): 308 µM
- concentration at 1 h ([2]; brain, 90 mg kg^–1, Twitcher mice, 90 mg kg^–1 i.p., read-out: Cb, u (μM) brain unbounded concentration): 2.15 µM
- concentration at 1 h ([2]; plasma, 30 mg kg^–1, Twitcher mice, 30 mg kg^–1 i.p., read-out: Cp (μM) plasma concentration): 0.85 µM
- concentration at 1 h ([2]; plasma, 30 mg kg^–1, Twitcher mice, 30 mg kg^–1 i.p., read-out: Cp,u (μM) plasma unbounded concentration): 0.11 µM
- concentration at 1 h ([2]; plasma, 90 mg kg^–1, Twitcher mice, 90 mg kg^–1 i.p., read-out: Cp (μM) plasma concentration): 3.85 µM
- concentration at 1 h ([2]; plasma, 90 mg kg^–1, Twitcher mice, 90 mg kg^–1 i.p., read-out: Cp,u (μM) plasma unbounded concentration): 0.52 µM

From publication PMC7997574, “Lead Optimization of Benzoxazolone Carboxamides as Orally Bioavailable and CNS Penetrant Acid Ceramidase Inhibitors” (Journal of Medicinal Chemistry, 2020)
